Values quoted from earlier work in US7625587B2, “Hepato phyto-nutraceutical synergistic composition” (priority 2006, dated 2009).

What was measured:
[1] = tested on: bacterial resistance mechanism (multidrug pump); details: in the presence of 5′-MHC
hepatic mitochondria = details: free oxygen radical induced damage
[2] = tested on: carbon tetrachloride hepatotoxicity; details: mouse, in vivo
mice hepatocytes [3] = tested on: mice hepatocytes
mice hepatocytes [4] = tested on: mice hepatocytes; remark: listed apart in the source
[5] = tested on: 11_beta-hydroxysteroid dehydrogenase; details: in vitro
beta-reductase = details: in vitro
[6] = tested on: hepatic toxicity induced by paracetamol, prednisolone and bromobenzene; details: mice; pre-treatment during ten days

COc1cc([C@H]2Oc3cc(-c4cc(=O)c5c(O)cc(O)cc5o4)cc(OC)c3O[C@@H]2CO)ccc1O (racemic) [5′-methoxyhydnocarpin]
accumulation of berberine in the cells [1]: strong increase of accumulation of berberine

COc1cc(/C=C/C(=O)O)ccc1O [Ferulic acid, ferulic acid]
protection of hepatic mitochondria (hepatic mitochondria): protected the hepatic mitochondria

CC1(C)[C@@H](O[C@H]2O[C@H](C(=O)O)[C@@H](O)[C@H](O)[C@H]2O[C@@H]2O[C@H](C(=O)O)[C@@H](O)[C@H](O)[C@H]2O)CC[C@]2(C)[C@H]3C(=O)C=C4[C@@H]5C[C@@](C)(C(=O)O)CC[C@]5(C)CC[C@@]4(C)[C@]3(C)CC[C@@H]12 [Glycyrrhizin]
hepatic injuries induced by carbon tetrachloride [2]: prevented hepatic injuries
liberation of histamine (mice hepatocytes [3]): inhibited the liberation of histamine

CC1(C)[C@@H](O[C@H]2O[C@H](C(=O)O)[C@@H](O)[C@H](O)[C@H]2O[C@@H]2O[C@H](C(=O)O)[C@@H](O)[C@H](O)[C@H]2O)CC[C@]2(C)[C@H]3C(=O)C=C4[C@@H]5C[C@@](C)(C(=O)O)CC[C@]5(C)CC[C@@]4(C)[C@]3(C)CC[C@@H]12 [glicirricinic acid]
toxic action of carbon tetrachloride and of galactosamine (mice hepatocytes [4]): reduces the toxic action

CC1(C)[C@@H](O)CC[C@]2(C)[C@H]3C(=O)C=C4[C@@H]5C[C@@](C)(C(=O)O)CC[C@]5(C)CC[C@@]4(C)[C@]3(C)CC[C@@H]12 [glycyrrhetic acid]
inhibition of 11_beta-hydroxysteroid dehydrogenase [5]: inhibits
inhibition of beta-reductase (beta-reductase): inhibits

COc1cc(/C=C/C(=O)[O-])ccc1O.[Na+] [sodium ferulate]
drug induced hepatic toxicity [6]: improved the hepatic toxicity
